According to US7579488B2 (Eli Lilly and Company, priority 2003, dated 2009):
Several values for one entry are separate records, joined by “and”; a condition that tells them apart may be missing. Equal values may be shown once.

How the values were obtained:
Assay type in all cases: cell-based
rat osteocalcin promoter = test: OCN (osteocalcin) promoter assay; conditions: RG-15 (ROS 17/2.8) cells
Experimental: 3. The OCN (Osteocalcin) Promoter Assay
The OCN Promoter Assay is an indicator and marker for osteoporosis. […] Preferred assay results are less than 50 nM.
(3) Materials and Method for The OCN Promoter Assay:
The activation of osteocalcin by VDR ligands was evaluated in a rat osteoblast-like cell line RG-15 (ROS 17/2.8) stably expressing rat osteocalcin promoter fused with luciferase reporter gene. […] Confluent RG-15 cells maintained in DMEM/F-12 medium (3:1) containing 5% FBS, 300 μg/ml G418 and at 37° C. under 5% CO2/95% air atmosphere were trypsinized (0.25% trypsin) and plated into white opaque 96-well cell culture plates (25000 cells/well). After 24 hr, cells (in DMEM/F-12 medium+2% FBS) were treated with various concentrations of compounds, dissolved in DMSO. The final DMSO concentration remained at 0.01% (v/v). After 48 hr treatment, the medium was removed, cells were lysed with 50 μl of lysis buffer (From Luciferase reporter assay system, Roche Diagnostics, Indianapolis, Ind.) and assayed for luciferase activity using the Luciferase Reporter Gene Assay kit from Boehringer Mannheim as per manufacturer's specifications.

KERtr cells = test: Keratinocyte proliferation assay; conditions: Homo sapiens, 72 h, BrdU incorporation, several values separated by /, read-out: Kera. Prolif. IC50
Experimental: 5. The Keratinocyte Proliferation Assay
This Assay is indicative for the treatment of psoriasis.
(5) The Keratinocyte Proliferation Assay:
KERtr cells (Human skin keratinocyte transformed with a retrovirus vector, obtained from ATCC) were plated in 96-well flat-bottomed plates (3000 cells/well) in 100 μl keratinocyte serum free medium supplemented with bovine pituitary extract in the absence of EGF (Life Technologies, Rockville, Md.) and incubated at 37° C. for two days. The cells were treated with various concentrations of VDR ligands (ten-fold serial dilution from 10,000 nM to 0.1 nM in triplicate), dissolved in 100 μl keratinocyte serum free medium supplemented with bovine pituitary extract in the absence of EGF and incubated at 37° C. for 72 hr. […] Potency values (IC50) values were determined as the concentration (nM) of compound that elicited a half-maximal response.

RXR-VDR heterodimer = biological target: T1, RXR-VDR heterodimer (Homo sapiens, UniProt P11473); test: RXR-VDR heterodimerization assay (SaOS-2 cells); conditions: Gal4-RXR-DEF/VP16-VDR-LBD luciferase reporter, several values in a cell separated by /
T1 construct: Add the Gal4-RXR-DEF and VP16-VDR-LBD; expressed in transfected cells; host or cells: SaOS-2 cells
T1 sequence (P11473 127-423 limits assumed): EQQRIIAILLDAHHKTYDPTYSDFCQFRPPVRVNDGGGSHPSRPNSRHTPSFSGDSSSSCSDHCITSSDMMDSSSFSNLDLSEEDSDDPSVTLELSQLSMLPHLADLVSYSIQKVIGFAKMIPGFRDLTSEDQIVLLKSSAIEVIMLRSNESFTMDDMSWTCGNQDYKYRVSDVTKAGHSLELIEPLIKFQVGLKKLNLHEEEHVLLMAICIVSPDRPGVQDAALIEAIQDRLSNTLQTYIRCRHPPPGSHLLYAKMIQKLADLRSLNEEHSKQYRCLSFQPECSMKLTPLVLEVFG
T1 sequence (P19793 201-462 partner limits assumed): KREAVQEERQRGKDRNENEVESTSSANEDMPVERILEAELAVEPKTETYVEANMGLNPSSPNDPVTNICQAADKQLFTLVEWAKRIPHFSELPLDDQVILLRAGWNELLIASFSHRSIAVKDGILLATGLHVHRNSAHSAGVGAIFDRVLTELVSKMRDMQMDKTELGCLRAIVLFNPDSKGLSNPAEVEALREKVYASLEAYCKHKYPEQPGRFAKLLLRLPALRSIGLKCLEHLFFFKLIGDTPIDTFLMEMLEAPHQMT
Experimental: 1. The RXR-VDR Heterodimer Assay:
This assay provides the VDR activity of a test compound.
(1) Materials and Method for RXR-VDR Heterodimerization Assay:
Luciferase Assay Reagent: • Use Steady-Glo Luciferase Reagent from Promega (Cat #E2550) Consists of: a. E2533 Assay Substrate, lyopholized product and b. E2543 Assay Buffer. • Thaw at room temperature • Store Cell Harvesting Aspirate media from culture flask, rinse cells with HBSS and aspirate. Add trypsin and incubate. When cells appear detached, resuspend cells in growth media. Transfer into a new flask with fresh growth media for passaging the cells. Plate well plates and two extra plates A. Cell Count Mix the cell suspension using pipette Use Hematocytometer to count the cells Load cell suspension onto the hemocytometer chamber Count cells. […] In sterile flask add cell suspension to plating media. Mix. Add cells/well. Place the cells in the incubator. Cells should be about 75% confluent prior to transfection. DAY 2: Transfection Step 1: DNA and Media Add plain DMEM media to tubes for mixing the DNA Add the Reporter gene pFR-LUC Add the Gal4-RXR-DEF and VP16-VDR-LBD Step 2: FuGENE and Media Prepare plain DMEM media in a ubes for mixing FuGENE Add FuGENE 6 Transfection Reagent Incubate Step 3: FuGENE, DNA and Media Complex Add FuGENE Media complex from step 2 to DNA Media complex from step 1 Incubate Step 4: FuGENE, DNA and Media Complex to-well plate Add FuGENE-DNA-Media complex from step 3 to each plate Incubate. […] Day 4: Luciferase Assay Read the plates after drug treatment Remove part of media from all the wells and leave remainder Add Steady-Glo Luciferase Reagent mixture/wells Incubate Count each well using a Luminescence counter, Top Count NXT by Packard
Set a delay between plates to reduce the background.

[1] = Rattus norvegicus, 48 h, 48 hr treatment, luciferase, several values separated by /
[2] = 48 hr treatment, luciferase, several values separated by /

| Structure (SMILES) | EC50 (rat osteocalcin promoter; [1]) [µM] | IC50 (KERtr cells) [µM] | EC50 (RXR-VDR heterodimer) | EC50 (rat osteocalcin promoter; [2]) [µM] | EC50 (rat osteocalcin promoter; Rattus norvegicus, comparison compounds) [µM] |
| --- | --- | --- | --- | --- | --- |
| CCC(CC)(c1ccc(OCC(=O)C(C)(C)C)c(C)c1)c1cc2cc(C(=O)OC)ccc2o1 [Ex. 1] | 0.001 | 0.071 | – | – | – |
| CCC(CC)(c1ccc(OCC2(C(C)(C)C)OCCO2)c(C)c1)c1cc2cc(C(=O)O)ccc2o1 [Ex 15, 2-{1-[4-(2-tert-Butyl-[1,3]dioxolan-2-ylmethoxy)-3-methyl-phenyl]-1-ethyl-propyl}-benzofuran-5-carboxylic acid] | 0.634 | – | 1.35 µM and 0.627 µM | – | – |
| CCC(CC)(c1ccc(OCC(O)C(C)(C)C)c(C)c1)c1cc(C)c2oc(C(=O)N(C)C)cc2c1 (stereo not drawn) [Ex 27, 5-{1-Ethyl-1-[4-(2-hydroxy-3,3-dimethyl-butoxy)-3-methyl-phenyl]-propyl}-7-methyl-benzofuran-2-carboxylic acid dimethylamide] | 0.009 | > 1 | 0.154 µM and 0.051 µM | 0.017 | – |
| CCC(CC)(c1ccc(OCC(=O)C(C)(C)C)c(C)c1)c1cc2cc(C(=O)NC(C)(C)C(=O)O)ccc2o1 [Ex. 10, 2-[(2-{1-[4-(3,3-Dimethyl-2-oxo-butoxy)-3-methyl-phenyl]-1-ethyl-propyl}-benzofuran-5-carbonyl)-amino]-2-methyl-propionic acid] | 0.275 | 0.215 | 0.235 µM | – | – |
| CCC(CC)(c1ccc(OCC(=O)C(C)(C)C)c(C)c1)c1cc2cc(C(=O)N(C)CC(=O)O)ccc2o1 | 0.007 | 0.01 | 0.009 µM | – | – |
| CCC(CC)(c1ccc(OCC(O)C(C)(C)C)c(C)c1)c1cc(C)c2oc(C(=O)O)cc2c1 (stereo not drawn) [Ex 22, 5-{1-Ethyl-1-[4-(2-hydroxy-3,3-dimethyl-butoxy)-3-methyl-phenyl]-propyl}-7-methyl-benzofuran-2-carboxylic acid] | 0.001 | 0.109 | 0.027 µM | – | – |
| CCC(CC)(c1ccc(OCC2(C(C)(C)C)OCCO2)c(C)c1)c1cc(C)c2oc(C(=O)N(C)C)cc2c1 [Ex 25, 5-{1-[4-(2-tert-Butyl-[1,3]dioxolan-2-ylmethoxy)-3-methyl-phenyl]-1-ethyl-propyl}-7-methyl-benzofuran-2-carboxylic acid dimethylamide] | 1 | 1 | 0.067 µM | – | – |
| CCC(CC)(c1ccc(OCC2(C(C)(C)C)OCCO2)c(C)c1)c1cc(C)c2oc(C(=O)O)cc2c1 [Ex 23, 5-{1-[4-(2-tert-Butyl-[1,3]dioxolan-2-ylmethoxy)-3-methyl-phenyl]-1-ethylpropyl}-7-methyl-benzofuran-2-carboxylic acid] | 0.127 | – | 0.66 µM and 0.32 µM | 0.088 | – |
| CCC(CC)(c1ccc(OCC(=O)C(C)(C)C)c(C)c1)c1cc(C)c2oc(C(=O)N(C)C)cc2c1 [Ex 26, 5-{1-[4-(3,3-Dimethyl-2-oxo-butoxy)-3-methyl-phenyl]-1-ethyl-propyl}-7-methyl-benzofuran-2-carboxylic acid dimethylamide] | 0.017 | – | – | – | – |
| CCC(CC)(c1ccc(OCC(O)C(C)(C)C)c(C)c1)c1cc(C)c2oc(C(=O)NCC(=O)O)cc2c1 (stereo not drawn) [Ex 29, [(5-{1-Ethyl-1-[4-(2-hydroxy-3,3-dimethyl-butoxy)-3-methyl-phenyl]-propyl}-7-methyl-benzofuran-2-carbonyl)-amino]-acetic acid] | 0.003 | 0.414 | 0.071 µM | – | – |
| CCC(CC)(c1ccc(OCC2(C(C)(C)C)OCCO2)c(C)c1)c1cc(C)c2oc(C(=O)NCC(=O)O)cc2c1 [Ex 24, [(5-{1-[4-(2-tert-butyl-[1,3]dioxolan-2-ylmethoxy)-3-methyl-phenyl]-1-ethyl-propyl}-7-methyl-benzofuran-2-carbonyl)-amino]-acetic acid] | 0.431 | – | 0.851 µM | – | – |
| Cc1cc(C2(c3ccc(OCC(=O)C(C)(C)C)c(C)c3)CCCCC2)ccc1OCC(=O)C(C)(C)C [CC, 1-(4-{1-[4-(3,3-Dimethyl-2-oxo-butoxy)-3-methyl-phenyl]-cyclohexyl}-2-methyl-phenoxy)-3,3-dimethyl-butan-2-one, reference compound] | – | – | – | – | 2.68 |
| CCC(CC)(c1ccc(OCC(O)C(C)(C)C)c(C)c1)c1cc2cc(C(=O)N(C)C)ccc2o1 (stereo not drawn) [Ex. 6, 2-{1-Ethyl-1-[4-(2-hydroxy-3,3-dimethyl-butoxy)-3-methyl-phenyl]-propyl}-benzofuran-5-carboxylic acid dimethylamide] | 0.068 | – | 0.41 µM and 0.079 µM | 0.047 | – |
| CCC(CC)(c1ccc(OCC2(C(C)(C)C)OCCO2)c(C)c1)c1cc2cc(C(=O)NCC(=O)O)ccc2o1 [Ex 16, [(2-{1-[4-(2-tert-butyl-[1,3]dioxolan-2-ylmethoxy)-3-methyl-phenyl]-1-ethyl-propyl}-benzofuran-5-carbonyl)-amino]-acetic acid] | 0.027 | – | 0.57 µM and 0.071 µM | 0.044 | – |
| CCC(CC)(c1ccc(OCC(=O)C(C)(C)C)c(C)c1)c1cc2ccc(OS(C)(=O)=O)cc2o1 [Ex 40, methanesulfonic acid 2-{1-[4-(3,3-dimethyl-2-oxo-butoxy)-3-methyl-phenyl]-1-ethyl-propyl}-benzofuran-6-yl ester] | – | – | 0.08 µM | – | – |
| CCC(CC)(c1ccc(OCC(=O)C(C)(C)C)c(C)c1)c1ccc2oc(C(=O)N(C)C)c(C)c2c1 [Ex 36, 5-{1-[4-(3,3-dimethyl-2-oxo-butoxy)-3-methyl-phenyl]-1-ethyl-propyl}-3-methyl-benzofuran-2-carboxylic acid dimethylamide] | 0.21 | – | 0.536 µM | – | – |
